US9249129B2, “Morpholino substituted urea derivatives as mTOR inhibitors” (CELLZOME LIMITED, priority 2010, dated 2016)

How the values were obtained:
Experiment in all cases: kinobeads assay with mass spectrometry detection of kinases (kinase selectivity profile)
Format in all cases: binding
kinases (kinome) [1] = biological target: T1, kinases (kinome) (Homo sapiens, UniProt Q05655); conditions: PKCd (AGC), IPI00329236
T1 construct: determined in kinobeads assays with mass spectrometry detection of kinases as described previously; endogenous in cells; host or cells: cell lysate
T1 sequence (Q05655 whole entry): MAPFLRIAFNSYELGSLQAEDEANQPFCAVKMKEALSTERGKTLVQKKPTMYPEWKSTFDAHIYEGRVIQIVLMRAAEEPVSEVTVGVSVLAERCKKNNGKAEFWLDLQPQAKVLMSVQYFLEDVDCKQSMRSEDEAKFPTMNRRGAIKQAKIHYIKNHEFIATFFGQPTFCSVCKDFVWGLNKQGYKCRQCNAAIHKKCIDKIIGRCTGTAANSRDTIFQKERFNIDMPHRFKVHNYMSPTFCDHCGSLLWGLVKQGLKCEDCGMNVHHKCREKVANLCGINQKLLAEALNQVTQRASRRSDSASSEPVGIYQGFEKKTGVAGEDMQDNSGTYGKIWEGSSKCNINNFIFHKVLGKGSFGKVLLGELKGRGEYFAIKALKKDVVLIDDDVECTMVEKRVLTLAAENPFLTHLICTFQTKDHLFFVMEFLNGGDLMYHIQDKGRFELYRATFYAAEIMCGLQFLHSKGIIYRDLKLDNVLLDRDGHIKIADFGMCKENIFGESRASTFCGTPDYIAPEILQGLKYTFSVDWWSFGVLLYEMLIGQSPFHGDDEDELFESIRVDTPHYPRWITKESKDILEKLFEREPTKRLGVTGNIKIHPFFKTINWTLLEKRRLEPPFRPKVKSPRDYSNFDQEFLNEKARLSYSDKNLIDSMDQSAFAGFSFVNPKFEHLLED
Description: (§1) The protein kinase complement of the human genome (the kinome) was described previously (Manning et al., 2002. Science 298(5600):1912-1934). Sequence accession numbers are defined by the International Protein Index (IPI) (Kersey et al., 2004. Proteomics 4(7):1985-1988).

kinases (kinome) [2] = biological target: T2, kinases (kinome) (Homo sapiens, UniProt P10721); conditions: KIT (TK), IPI00022296
T2 construct: determined in kinobeads assays with mass spectrometry detection of kinases as described previously; endogenous in cells; host or cells: cell lysate
Description: as §1

kinases (kinome) [3] = biological target: T3, kinases (kinome) (Homo sapiens, UniProt Q9BYT3); conditions: STK33 (CAMK), IPI00302351
T3 construct: determined in kinobeads assays with mass spectrometry detection of kinases as described previously; endogenous in cells; host or cells: cell lysate
T3 sequence (Q9BYT3 whole entry): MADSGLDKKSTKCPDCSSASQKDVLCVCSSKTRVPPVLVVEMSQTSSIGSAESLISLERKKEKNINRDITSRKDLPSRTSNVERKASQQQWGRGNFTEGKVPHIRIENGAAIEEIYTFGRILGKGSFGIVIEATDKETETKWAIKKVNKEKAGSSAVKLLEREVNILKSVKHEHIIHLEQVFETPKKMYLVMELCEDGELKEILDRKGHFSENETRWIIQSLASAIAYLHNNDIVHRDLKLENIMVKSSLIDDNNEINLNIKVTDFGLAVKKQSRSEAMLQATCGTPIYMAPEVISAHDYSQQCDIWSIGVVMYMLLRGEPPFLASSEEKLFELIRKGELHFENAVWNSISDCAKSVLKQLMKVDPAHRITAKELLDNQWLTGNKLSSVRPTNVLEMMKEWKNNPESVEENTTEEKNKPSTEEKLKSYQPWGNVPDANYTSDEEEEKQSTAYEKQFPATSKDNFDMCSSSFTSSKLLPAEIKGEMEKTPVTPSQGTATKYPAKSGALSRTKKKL
Description: as §1

kinases (kinome) [4] = biological target: T4, kinases (kinome) (Homo sapiens, UniProt Q99570); conditions: PIK3R4 (Other), IPI00024006
T4 construct: determined in kinobeads assays with mass spectrometry detection of kinases as described previously; endogenous in cells; host or cells: cell lysate
Description: as §1

kinases (kinome) [5] = biological target: T5, kinases (kinome) (Homo sapiens, UniProt Q9P2K8); conditions: GCN2 (Other), IPI00163851
T5 construct: determined in kinobeads assays with mass spectrometry detection of kinases as described previously; endogenous in cells; host or cells: cell lysate
T5 sequence (Q9P2K8 whole entry): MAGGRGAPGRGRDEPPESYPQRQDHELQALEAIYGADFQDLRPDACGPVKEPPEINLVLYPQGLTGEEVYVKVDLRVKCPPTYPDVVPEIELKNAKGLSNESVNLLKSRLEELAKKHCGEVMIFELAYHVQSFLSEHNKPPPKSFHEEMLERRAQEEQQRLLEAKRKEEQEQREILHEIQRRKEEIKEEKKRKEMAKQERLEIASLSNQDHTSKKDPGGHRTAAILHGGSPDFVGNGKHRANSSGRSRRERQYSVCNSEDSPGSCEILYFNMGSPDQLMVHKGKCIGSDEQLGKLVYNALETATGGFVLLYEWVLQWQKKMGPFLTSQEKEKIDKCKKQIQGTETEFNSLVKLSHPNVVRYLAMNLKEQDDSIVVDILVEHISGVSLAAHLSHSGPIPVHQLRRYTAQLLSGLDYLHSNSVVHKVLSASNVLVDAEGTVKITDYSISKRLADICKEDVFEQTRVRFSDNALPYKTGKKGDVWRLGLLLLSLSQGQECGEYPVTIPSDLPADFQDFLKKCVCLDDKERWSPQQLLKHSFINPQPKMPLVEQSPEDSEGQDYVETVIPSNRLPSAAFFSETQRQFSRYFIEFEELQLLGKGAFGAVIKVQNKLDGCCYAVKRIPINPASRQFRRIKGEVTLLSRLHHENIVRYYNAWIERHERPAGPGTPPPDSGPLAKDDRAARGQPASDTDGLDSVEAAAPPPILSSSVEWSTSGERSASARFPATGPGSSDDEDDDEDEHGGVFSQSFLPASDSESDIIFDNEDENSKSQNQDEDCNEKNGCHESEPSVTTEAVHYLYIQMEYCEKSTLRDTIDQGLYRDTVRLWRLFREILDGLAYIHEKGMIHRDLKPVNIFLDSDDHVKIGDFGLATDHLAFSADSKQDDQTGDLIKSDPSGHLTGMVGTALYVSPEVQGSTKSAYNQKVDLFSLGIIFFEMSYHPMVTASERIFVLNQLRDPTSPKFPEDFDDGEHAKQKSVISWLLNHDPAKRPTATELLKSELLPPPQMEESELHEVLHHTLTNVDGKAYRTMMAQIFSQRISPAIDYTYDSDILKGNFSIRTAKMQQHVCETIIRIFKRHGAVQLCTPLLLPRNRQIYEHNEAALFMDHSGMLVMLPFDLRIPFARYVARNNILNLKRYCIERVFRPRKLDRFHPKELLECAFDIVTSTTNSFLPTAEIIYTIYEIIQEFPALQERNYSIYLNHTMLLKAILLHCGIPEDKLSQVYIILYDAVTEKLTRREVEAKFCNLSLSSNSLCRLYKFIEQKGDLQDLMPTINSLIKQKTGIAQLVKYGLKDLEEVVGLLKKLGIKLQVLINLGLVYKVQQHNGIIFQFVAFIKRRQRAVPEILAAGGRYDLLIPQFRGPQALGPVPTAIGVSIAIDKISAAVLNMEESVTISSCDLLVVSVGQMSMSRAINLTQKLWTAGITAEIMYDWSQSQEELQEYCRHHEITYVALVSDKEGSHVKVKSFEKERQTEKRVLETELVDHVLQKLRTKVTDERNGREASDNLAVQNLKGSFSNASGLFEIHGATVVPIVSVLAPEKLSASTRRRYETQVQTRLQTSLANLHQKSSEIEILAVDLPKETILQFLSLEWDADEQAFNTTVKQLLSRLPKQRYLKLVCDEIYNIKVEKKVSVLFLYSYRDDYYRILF
Description: as §1

kinases (kinome) [6] = biological target: T6, kinases (kinome) (Homo sapiens, UniProt Q02750); conditions: MAP2K1 (STE), IPI00219604
T6 construct: determined in kinobeads assays with mass spectrometry detection of kinases as described previously; endogenous in cells; host or cells: cell lysate
T6 sequence (Q02750 whole entry): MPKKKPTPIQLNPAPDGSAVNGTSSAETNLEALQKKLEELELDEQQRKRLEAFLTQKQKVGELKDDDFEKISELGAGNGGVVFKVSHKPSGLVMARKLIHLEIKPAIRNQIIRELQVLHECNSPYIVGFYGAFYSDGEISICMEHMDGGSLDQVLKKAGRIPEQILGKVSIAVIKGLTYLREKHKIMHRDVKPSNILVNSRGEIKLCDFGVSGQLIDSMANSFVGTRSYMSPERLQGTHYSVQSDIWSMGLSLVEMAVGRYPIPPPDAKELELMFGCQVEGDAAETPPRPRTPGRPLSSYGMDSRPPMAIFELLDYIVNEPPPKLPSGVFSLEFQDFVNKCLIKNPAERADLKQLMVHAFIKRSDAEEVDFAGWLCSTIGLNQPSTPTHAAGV
Description: as §1

kinases (kinome) [7] = biological target: T7, kinases (kinome) (Homo sapiens, UniProt O60674); conditions: JAK2 (TK), IPI00031016
T7 construct: determined in kinobeads assays with mass spectrometry detection of kinases as described previously; endogenous in cells; host or cells: cell lysate
Description: as §1

kinases (kinome) [8] = biological target: T8, kinases (kinome) (Homo sapiens, UniProt O15197); conditions: EphB6 (TK), IPI00005222
T8 construct: determined in kinobeads assays with mass spectrometry detection of kinases as described previously; endogenous in cells; host or cells: cell lysate
T8 sequence (O15197 32-1021): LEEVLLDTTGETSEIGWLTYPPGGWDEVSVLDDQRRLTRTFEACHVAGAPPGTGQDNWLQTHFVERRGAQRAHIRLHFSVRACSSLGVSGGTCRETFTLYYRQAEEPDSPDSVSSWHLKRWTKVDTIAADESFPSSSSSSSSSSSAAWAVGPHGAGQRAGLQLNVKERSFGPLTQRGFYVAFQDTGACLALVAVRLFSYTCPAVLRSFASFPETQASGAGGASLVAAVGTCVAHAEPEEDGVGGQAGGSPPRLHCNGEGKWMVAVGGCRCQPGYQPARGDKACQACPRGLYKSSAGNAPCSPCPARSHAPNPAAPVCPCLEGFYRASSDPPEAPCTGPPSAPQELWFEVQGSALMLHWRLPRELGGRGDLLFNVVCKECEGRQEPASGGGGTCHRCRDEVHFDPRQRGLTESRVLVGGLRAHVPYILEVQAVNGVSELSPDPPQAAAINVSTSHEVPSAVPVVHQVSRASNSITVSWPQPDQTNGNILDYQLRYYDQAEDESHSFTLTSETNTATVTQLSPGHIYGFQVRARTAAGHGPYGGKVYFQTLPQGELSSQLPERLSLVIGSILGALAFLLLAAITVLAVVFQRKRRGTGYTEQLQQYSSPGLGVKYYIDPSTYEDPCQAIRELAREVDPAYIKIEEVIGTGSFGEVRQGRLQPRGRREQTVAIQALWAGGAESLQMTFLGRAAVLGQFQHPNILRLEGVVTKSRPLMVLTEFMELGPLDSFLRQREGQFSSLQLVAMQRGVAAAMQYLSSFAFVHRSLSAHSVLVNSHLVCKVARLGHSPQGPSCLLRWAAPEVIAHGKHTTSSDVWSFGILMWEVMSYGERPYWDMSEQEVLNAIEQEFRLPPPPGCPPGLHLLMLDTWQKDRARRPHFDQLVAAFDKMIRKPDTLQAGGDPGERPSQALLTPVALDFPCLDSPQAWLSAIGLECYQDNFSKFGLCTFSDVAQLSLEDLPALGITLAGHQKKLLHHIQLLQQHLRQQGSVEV
Description: as §1

kinases (kinome) [9] = biological target: T9, kinases (kinome) (Homo sapiens, UniProt Q9H2G2); conditions: SLK (STE), IPI00022827
T9 construct: determined in kinobeads assays with mass spectrometry detection of kinases as described previously; endogenous in cells; host or cells: cell lysate
Description: as §1

kinases (kinome) [10] = biological target: T10, kinases (kinome) (Homo sapiens, UniProt Q13627); conditions: DYRK1A (CMGC), IPI00014344
T10 construct: determined in kinobeads assays with mass spectrometry detection of kinases as described previously; endogenous in cells; host or cells: cell lysate
Description: as §1

kinases (kinome) [11] = biological target: T11, kinases (kinome) (Homo sapiens, UniProt Q16584); conditions: MLK3 (TKL), IPI00000977
T11 construct: determined in kinobeads assays with mass spectrometry detection of kinases as described previously; endogenous in cells; host or cells: cell lysate
T11 sequence (Q16584 whole entry): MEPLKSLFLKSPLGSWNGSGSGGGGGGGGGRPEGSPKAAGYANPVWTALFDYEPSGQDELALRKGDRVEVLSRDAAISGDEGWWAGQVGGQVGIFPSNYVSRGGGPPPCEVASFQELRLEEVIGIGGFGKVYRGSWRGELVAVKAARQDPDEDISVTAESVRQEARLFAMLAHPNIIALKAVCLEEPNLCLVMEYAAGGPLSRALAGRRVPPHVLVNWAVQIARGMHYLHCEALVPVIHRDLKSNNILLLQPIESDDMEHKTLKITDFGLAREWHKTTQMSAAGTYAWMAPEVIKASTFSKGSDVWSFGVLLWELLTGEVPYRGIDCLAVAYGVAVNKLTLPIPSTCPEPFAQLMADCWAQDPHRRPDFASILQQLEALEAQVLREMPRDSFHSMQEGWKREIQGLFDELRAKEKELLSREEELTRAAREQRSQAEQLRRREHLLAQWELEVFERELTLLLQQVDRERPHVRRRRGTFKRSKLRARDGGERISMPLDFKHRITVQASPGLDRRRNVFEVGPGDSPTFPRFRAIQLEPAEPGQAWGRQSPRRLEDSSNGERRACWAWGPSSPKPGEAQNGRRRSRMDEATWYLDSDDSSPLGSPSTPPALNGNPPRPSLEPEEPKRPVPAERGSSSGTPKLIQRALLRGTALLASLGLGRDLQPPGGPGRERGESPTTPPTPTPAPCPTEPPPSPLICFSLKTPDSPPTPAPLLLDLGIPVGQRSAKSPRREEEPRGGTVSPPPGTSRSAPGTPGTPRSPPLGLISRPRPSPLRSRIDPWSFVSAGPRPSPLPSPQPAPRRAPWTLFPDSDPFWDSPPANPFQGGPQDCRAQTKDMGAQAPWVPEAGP
Description: as §1

kinases (kinome) [12] = biological target: T12, kinases (kinome) (Homo sapiens, UniProt Q13164); conditions: Erk5 (CMGC), IPI00910923
T12 construct: determined in kinobeads assays with mass spectrometry detection of kinases as described previously; endogenous in cells; host or cells: cell lysate
Description: as §1

kinases (kinome) [13] = biological target: T13, kinases (kinome) (Homo sapiens, UniProt P15735); conditions: PHKg2 (CAMK), IPI00012891
T13 construct: determined in kinobeads assays with mass spectrometry detection of kinases as described previously; endogenous in cells; host or cells: cell lysate
Description: as §1

kinases (kinome) [14] = biological target: T14, kinases (kinome) (Homo sapiens, UniProt P06213); conditions: INSR (TK), IPI00025803
T14 construct: determined in kinobeads assays with mass spectrometry detection of kinases as described previously; endogenous in cells; host or cells: cell lysate
Description: as §1

kinases (kinome) [15] = biological target: T15, kinases (kinome) (Homo sapiens, UniProt Q15131); conditions: CDK10 (CMGC), IPI00014873
T15 construct: determined in kinobeads assays with mass spectrometry detection of kinases as described previously; endogenous in cells; host or cells: cell lysate
T15 sequence (Q15131 whole entry): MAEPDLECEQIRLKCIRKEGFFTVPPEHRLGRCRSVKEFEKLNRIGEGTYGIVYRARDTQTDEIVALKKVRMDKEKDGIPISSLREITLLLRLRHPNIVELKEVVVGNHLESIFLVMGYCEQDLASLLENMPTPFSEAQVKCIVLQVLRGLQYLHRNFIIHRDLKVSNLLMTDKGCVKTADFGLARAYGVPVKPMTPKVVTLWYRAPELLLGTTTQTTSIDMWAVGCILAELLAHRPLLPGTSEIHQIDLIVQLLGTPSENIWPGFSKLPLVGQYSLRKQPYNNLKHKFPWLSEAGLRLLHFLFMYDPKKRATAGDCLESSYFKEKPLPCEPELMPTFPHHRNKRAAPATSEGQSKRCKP
Description: as §1

kinases (kinome) [16] = biological target: T16, kinases (kinome) (Homo sapiens, UniProt Q9BZL6); conditions: PKD2 (CAMK), IPI00009334
T16 construct: determined in kinobeads assays with mass spectrometry detection of kinases as described previously; endogenous in cells; host or cells: cell lysate
Description: as §1

kinases (kinome) [17] = biological target: T17, kinases (kinome) (Homo sapiens, UniProt P51812); conditions: RSK2 (AGC), IPI00020898
T17 construct: determined in kinobeads assays with mass spectrometry detection of kinases as described previously; endogenous in cells; host or cells: cell lysate
Description: as §1

kinases (kinome) [18] = biological target: T18, kinases (kinome) (Homo sapiens, UniProt Q9Y6M4); conditions: CK1g3 (CK1), IPI00218437
T18 construct: determined in kinobeads assays with mass spectrometry detection of kinases as described previously; endogenous in cells; host or cells: cell lysate
T18 sequence (Q9Y6M4 whole entry): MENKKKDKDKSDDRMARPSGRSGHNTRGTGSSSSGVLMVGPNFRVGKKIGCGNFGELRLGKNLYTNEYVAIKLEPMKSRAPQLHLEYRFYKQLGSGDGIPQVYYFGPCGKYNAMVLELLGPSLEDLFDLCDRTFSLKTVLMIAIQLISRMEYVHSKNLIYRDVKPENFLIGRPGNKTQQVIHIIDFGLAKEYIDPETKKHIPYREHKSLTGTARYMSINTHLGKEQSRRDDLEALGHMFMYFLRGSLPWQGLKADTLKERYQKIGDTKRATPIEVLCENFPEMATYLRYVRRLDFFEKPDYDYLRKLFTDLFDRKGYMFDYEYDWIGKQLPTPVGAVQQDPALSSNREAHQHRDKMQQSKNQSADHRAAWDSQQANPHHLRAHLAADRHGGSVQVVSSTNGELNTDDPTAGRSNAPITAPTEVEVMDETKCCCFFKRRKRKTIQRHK
Description: as §1

kinases (kinome) [19] = biological target: T19, kinases (kinome) (Homo sapiens, UniProt Q16513); conditions: PKN2 (AGC), IPI00002804
T19 construct: determined in kinobeads assays with mass spectrometry detection of kinases as described previously; endogenous in cells; host or cells: cell lysate
Description: as §1

kinases (kinome) [20] = biological target: T20, kinases (kinome) (Homo sapiens, UniProt Q99759); conditions: MAP3K3 (STE), IPI00181703
T20 construct: determined in kinobeads assays with mass spectrometry detection of kinases as described previously; endogenous in cells; host or cells: cell lysate
Description: as §1

kinases (kinome) [21] = biological target: T21, kinases (kinome) (Homo sapiens, UniProt Q86TW2); conditions: ADCK1 (Atypical), IPI00787836
T21 construct: determined in kinobeads assays with mass spectrometry detection of kinases as described previously; endogenous in cells; host or cells: cell lysate
Description: as §1

kinases (kinome) [22] = biological target: T22, kinases (kinome) (Homo sapiens, UniProt Q9UQM7); conditions: CaMK2a (CAMK), IPI00550056
T22 construct: determined in kinobeads assays with mass spectrometry detection of kinases as described previously; endogenous in cells; host or cells: cell lysate
Description: as §1

Row | IC50 (kinases (kinome) [1]) [µM] | IC50 (kinases (kinome) [2]) [µM] | IC50 (kinases (kinome) [3]) [µM] | IC50 (kinases (kinome) [4]) [µM] | IC50 (kinases (kinome) [5]) [µM] | IC50 (kinases (kinome) [6]) [µM] | IC50 (kinases (kinome) [8]) [µM] | IC50 (kinases (kinome) [11]) [µM] | IC50 (kinases (kinome) [15]) [µM] | SMILES | other results
1 | > 10 | > 10 | > 10 | > 10 | > 10 | > 10 | > 10 | – | – | C[C@H]1COCCN1c1nc(-c2ccc(NC(=O)NC3CC3)cc2)cc(-c2cccnc2S(C)(=O)=O)n1 [Example 46, (S)-1-cyclopropyl-3-(4-(2-(3-methylmorpholino)-6-(2-(methylsulfonyl)pyridin-3-yl)pyrimidin-4-yl)phenyl)urea] | IC50 (kinases (kinome) [7]): > 10 µM
2 | > 10 | – | > 10 | > 10 | > 10 | > 10 | > 10 | > 10 | > 10 | C[C@H]1COCCN1c1nc(-c2ccc(NC(=O)NC3CC3)cc2)cc(-c2ccccc2S(C)(=O)=O)n1 [Example 4, (S)-1-cyclopropyl-3-(4-(2-(3-methylmorpholino)-6-(2-(methylsulfonyl)phenyl)pyrimidin-4-yl)phenyl)urea] | IC50 (kinases (kinome) [9]): > 10 µM; IC50 (kinases (kinome) [10]): > 10 µM; IC50 (kinases (kinome) [12]): > 10 µM; IC50 (kinases (kinome) [13]): > 10 µM; IC50 (kinases (kinome) [14]): > 10 µM; IC50 (kinases (kinome) [16]): > 10 µM; IC50 (kinases (kinome) [17]): > 10 µM; IC50 (kinases (kinome) [18]): > 10 µM
3 | > 10 | > 10 | > 10 | > 10 | – | > 10 | > 10 | > 10 | > 10 | C[C@H]1COCCN1c1nc(-c2ccc(NC(=O)NC3CC3)cc2)cc(-c2cc(F)ccc2S(C)(=O)=O)n1 [Example 40, (S)-1-cyclopropyl-3-(4-(6-(5-fluoro-2-(methylsulfonyl)phenyl)-2-(3-methylmorpholino)pyrimidin-4-yl)phenyl)urea] | IC50 (kinases (kinome) [19]): > 10 µM; IC50 (kinases (kinome) [13]): > 10 µM; IC50 (kinases (kinome) [14]): > 10 µM; IC50 (kinases (kinome) [16]): > 10 µM; IC50 (kinases (kinome) [17]): > 10 µM; IC50 (kinases (kinome) [20]): > 10 µM; IC50 (kinases (kinome) [21]): > 10 µM; IC50 (kinases (kinome) [7]): > 10 µM
4 | > 10 | – | – | > 10 | – | > 10 | – | – | – | C[C@H]1COCCN1c1nc(-c2ccc(NC(=O)N[C@H]3CCC[C@@H]3O)cc2)cc(-c2cc(F)ccc2S(C)(=O)=O)n1 [Example 76, 1-(4-(6-(5-fluoro-2-(methylsulfonyl)phenyl)-2-((S)-3-methylmorpholino)pyrimidin-4-yl)phenyl)-3-((1S,2S)-2-hydroxycyclopentyl)urea] | IC50 (kinases (kinome) [20]): > 10 µM
5 | > 10 | > 10 | – | > 10 | > 10 | > 10 | – | > 10 | > 10 | C[C@H]1COCCN1c1cc(-c2ccccn2)nc(-c2ccc(NC(=O)NCCO)cc2)n1 [Example 43, (S)-1-(2-hydroxyethyl)-3-(4-(4-(3-methylmorpholino)-6-(pyridin-2-yl)pyrimidin-2-yl)phenyl)urea] | IC50 (kinases (kinome) [19]): > 10 µM
6 | – | – | – | – | > 10 | – | > 10 | > 10 | – | C[C@H]1COCCN1c1cc(-c2ccccc2S(C)(=O)=O)nc(-c2ccc(NC(=O)NC3CC3)cc2)n1 [Example 6, (S)-1-cyclopropyl-3-(4-(4-(3-methylmorpholino)-6-(2-(methylsulfonyl)phenyl)pyrimidin-2-yl)phenyl)urea] | –
7 | – | – | – | – | – | – | – | > 10 | – | CCNC(=O)Nc1ccc(-c2cc(-c3ccccc3C#N)nc(N3CCOC[C@@H]3C)n2)cc1 [Example 8, (S)-1-(4-(6-(2-cyanophenyl)-2-(3-methylmorpholino)pyrimidin-4-yl)phenyl)-3-ethylurea] | IC50 (kinases (kinome) [22]): > 10 µM; IC50 (kinases (kinome) [18]): > 10 µM
